Laboratory results: US20170008921A1, “C-3 NOVEL TRITERPENONE WITH C-28 REVERSE AMIDE DERIVATIVES AS HIV INHIBITORS” (HETERO RESEARCH FOUNDATION, priority 2015, published 2017)

Tests used:
[1] = Single dose oral pharmacokinetic study; type: in vivo; settings: mouse, Mice oral PK @30 mg/kg, plasma, vehicle 10% Solutol+20% PEG; for AUC(0-t): read-out: AUC0-t; for Cmax: read-out: Cmax
Description: The test item was administered through oral route to animals (rat/mice) at 30 mg/kg dose in a suitable vehicle (10% Solutol+20% PEG) at 10 ml/kg dose volume. Blood samples (˜50 μL at each time point) were collected from retro-orbital plexus using K3 EDTA as anticoagulant in eppendorf tubes at defined time intervals 30 minutes, 1 hour, 2 hour, 4 hour, 8 hour, 24 hour & 48 hour under light ether anaesthesia. The samples were centrifuged at 3500×g to separate plasma and stored at −80° C. until analysis. Plasma 25 μl for Mice were processed as per described in sample preparation.
Standard solutions of the test compound 1 mg/mL solutions were prepared in DMSO and further dilutions were made in methanol. […] To the test compound plasma extraction was carried out using Acetonitrile precipitation. After reconstitution with solvent (50% Acetonitrile in Buffer) samples were analyzed by LCMSMS to get the concentrations to calculate PK Parameters.

[2] = Cyto-toxicity (MTT assay); type: cell-based
Description: On day 1 calculate the number of cells required for the assay and seed 3×10^4 cells in 200 μl per well. Weigh the compound and dissolve it in DMSO to get 10 mM stock which is further diluted to 3 mM and 1 mM. […] Add DMSO to controls in a way to obtain final concentration of solvent that is not greater than 1%. Incubate for 4 days in 5% CO2 incubator at 37° C. On day 4, 100 μl of medium was removed from each well without disturbing the cells. Add 10 μl of MTT reagent and incubate for 4 hours at 5% CO2 incubator at 37° C. for formation of crystals. Add 200 μl of 0.1N acidic isopropanol to dissolve the crystals and read the plate at 590 nm. The values are mentioned in below Table-3 and Table-3A.

Cc1cn(-c2ccc(C(=O)NC(C)(C)C(=O)N[C@@]34CC[C@]5(C)[C@H](CC[C@@H]6[C@@]7(C)CC[C@H](OC(=O)[C@H]8C[C@@H](C(=O)O)C8(C)C)C(C)(C)[C@@H]7CC[C@]65C)C3=C(C(C)C)C(=O)C4)cc2)cn1 [Example 20, (1R,3S)-3-((((3aR,5aR,5bR,7aR,9S,11aR,11bR,13aS)-1-isopropyl-5a,5b,8,8,11a-pentamethyl-3a-(2-methyl-2-(4-(4-methyl-1H-imidazol-1-yl)benz amido)propanamido)-2-oxo-3,3a,4,5,5a,5b,6,7,7a,8,9,10,11,11a,11b,12,13,13a-octadeca hydro-2H-cyclopenta[a]chrysen-9-yl)oxy)carbonyl)-2,2-dimethylcyclobutane-1-carboxylic acid]
AUC(0-t) [1]: 236 µg·h/mL
Cmax [1]: 19 µg/mL
viability at 4 days, 0.001 µM [2]: 91%
viability at 4 days, 0.003 µM [2]: 85%
viability at 4 days, 0.01 µM [2]: 40%

CC(C)C1=C2[C@H]3CC[C@@H]4[C@@]5(C)CC[C@H](OC(=O)[C@H]6C[C@@H](C(=O)O)C6(C)C)C(C)(C)[C@@H]5CC[C@@]4(C)[C@]3(C)CC[C@@]2(NC(=O)C(C)(C)NC(=O)c2ccc(C(F)(F)F)cc2)CC1=O [Example 25, (1R,3S)-3-((((3aR,5aR,5bR,7aR,9S,11aR,11bR,13aS)-1-isopropyl-5a,5b,8,8,11a-pentamethyl-3a-(2-methyl-2-(4-(trifluoromethyl)benzamido)propan amido)-2-oxo-3,3a,4,5,5a,5b,6,7,7a,8,9,10,11,11a,11b,12,13,13a-octadecahydro-2H-cyclopenta[a]chrysen-9-yl)oxy)carbonyl)-2,2-dimethylcyclobutane-1-carboxylic acid]
AUC(0-t) [1]: 336 µg·h/mL
Cmax [1]: 24 µg/mL
viability at 4 days, 0.01 µM [2]: 31%
viability at 4 days, 0.1 µM [2]: 6%
viability at 4 days, 1 µM [2]: 2%

Cc1ccc(C(=O)NC(C)(C)C(=O)N[C@@]23CC[C@]4(C)[C@H](CC[C@@H]5[C@@]6(C)CC[C@H](OC(=O)[C@H]7C[C@@H](C(=O)O)C7(C)C)C(C)(C)[C@@H]6CC[C@]54C)C2=C(C(C)C)C(=O)C3)cc1 [Example 23, (1R,3S)-3-((((3aR,5aR,5bR,7aR,9S,11aR,11bR,13aS)-1-isopropyl-5a,5b,8,8,11a-pentamethyl-3a-(2-methyl-2-(4-methylbenzamido)propanamido)-2-oxo-3,3a,4,5,5a,5b,6,7,7a,8,9,10,11,11a,11b,12,13,13a-octadecahydro-2H-cyclopenta[a]chrysen-9-yl)oxy)carbonyl)-2,2-dimethylcyclobutane-1-carboxylic acid]
AUC(0-t) [1]: 590 µg·h/mL
Cmax [1]: 29.7 µg/mL
viability at 4 days, 0.01 µM [2]: 34%
viability at 4 days, 0.1 µM [2]: 8%
viability at 4 days, 1 µM [2]: 4%

Cc1ccc(C(=O)NC2(C(=O)N[C@@]34CC[C@]5(C)[C@H](CC[C@@H]6[C@@]7(C)CC[C@H](OC(=O)[C@H]8C[C@@H](C(=O)O)C8(C)C)C(C)(C)[C@@H]7CC[C@]65C)C3=C(C(C)C)C(=O)C4)CCCCC2)cc1 [Example 50, (1R,3S)-3-((((3aR,5aR,5bR,7aR,9S,11aR,11bR,13aS)-1-isopropyl-5a,5b,8,8,11a-pentamethyl-3a-(1-(4-methylbenzamido)cyclohexane-1-carboxamido)-2-oxo-3,3a,4,5,5a,5b,6,7,7a,8,9,10,11,11a,11b,12,13,13a-octadecahydro-2H-cyclopenta[a]chrysen 9-yl)oxy)carbonyl)-2,2-dimethylcyclobutane-1-carboxylic acid]
AUC(0-t) [1]: 454 µg·h/mL
Cmax [1]: 23.3 µg/mL
viability at 4 days, 0.01 µM [2]: 21%
viability at 4 days, 0.1 µM [2]: 0%
viability at 4 days, 1 µM [2]: 0%

CC(C)C1=C2[C@H]3CC[C@@H]4[C@@]5(C)CC[C@H](OC(=O)[C@H]6C[C@@H](C(=O)O)C6(C)C)C(C)(C)[C@@H]5CC[C@@]4(C)[C@]3(C)CC[C@@]2(NC(=O)C(C)(C)NC(=O)c2cc(C(C)C)n[nH]2)CC1=O [Example 17, (1R,3S)-3-((((3aR,5aR,5bR,7aR,9S,11aR,11bR,13aS)-1-isopropyl-3a-(2-(3-isopropyl-1H-pyrazole-5-carboxamido)-2-methylpropanamido)-5a,5b,8,8, 11a-pentamethyl-2-oxo-3,3a,4,5,5a,5b,6,7,7a,8,9,10,11,11a,11b,12,13,13a-octadecahydro-2H-cyclopenta[a]chrysen-9-yl)oxy)carbonyl)-2,2-dimethylcyclobutane-1-carboxylic acid]
AUC(0-t) [1]: 333 µg·h/mL
Cmax [1]: 28.6 µg/mL
viability at 4 days, 0.001 µM [2]: 81%
viability at 4 days, 0.003 µM [2]: 62%
viability at 4 days, 0.01 µM [2]: 26%

CC(C)C1=C2[C@H]3CC[C@@H]4[C@@]5(C)CC[C@H](OC(=O)[C@H]6C[C@@H](C(=O)O)C6(C)C)C(C)(C)[C@@H]5CC[C@@]4(C)[C@]3(C)CC[C@@]2(NC(=O)C2(NC(=O)c3ncccn3)CCC2)CC1=O [Example 44, (1R,3S)-3-((((3aR,5aR,5bR,7aR,9S,11aR,11bR,13aS)-1-isopropyl-5a,5b,8,8,11a-pentamethyl-2-oxo-3a-(1-(pyrimidine-2-carboxamido)cyclobutane-1-carboxamido)-3,3a,4,5,5a,5b,6,7,7a,8,9,10,11,11a,11b,12,13,13a-octadecahydro-2H-cyclopenta[a]chrysen-9-yl)oxy)carbonyl)-2,2-dimethylcyclobutane-1-carboxylic acid]
AUC(0-t) [1]: 154 µg·h/mL
Cmax [1]: 19.8 µg/mL
viability at 4 days, 0.001 µM [2]: 84%
viability at 4 days, 0.003 µM [2]: 80%
viability at 4 days, 0.01 µM [2]: 58%

CC(C)C1=C2[C@H]3CC[C@@H]4[C@@]5(C)CC[C@H](OC(=O)[C@@H]6C[C@H](C(=O)O)C6(C)C)C(C)(C)[C@@H]5CC[C@@]4(C)[C@]3(C)CC[C@@]2(NC(=O)C(C)(C)NC(=O)c2ccc(Cl)cc2)CC1=O [Example 21, (1S,3R)-3-((((3aR,5aR,5bR,7aR,9S,11aR,11bR,13aS)-3a-(2-(4-chlorobenzamido)-2-methylpropanamido)-1-isopropyl-5a,5b,8,8,11a-pentamethyl-2-oxo-3,3a,4,5,5a,5b,6,7,7a,8,9,10,11,11a,11b,12,13,13a-octadecahydro-2H-cyclopenta[a]chrysen-9-yl)oxy)carbonyl)-2,2-dimethylcyclobutane-1-carboxylic acid]
AUC(0-t) [1]: 191 µg·h/mL
Cmax [1]: 16 µg/mL
viability at 4 days, 0.01 µM [2]: 36%
viability at 4 days, 0.1 µM [2]: 7%
viability at 4 days, 1 µM [2]: 6%

Cc1nc(C)c(C(=O)NC(C)(C)C(=O)N[C@@]23CC[C@]4(C)[C@H](CC[C@@H]5[C@@]6(C)CC[C@H](OC(=O)[C@H]7C[C@@H](C(=O)O)C7(C)C)C(C)(C)[C@@H]6CC[C@]54C)C2=C(C(C)C)C(=O)C3)s1 [Example 14, (1R,3S)-3-((((3aR,5aR,5bR,7aR,9S,11aR,11bR,13aS)-3a-(2-(2,4-dimethylthiazole-5-carboxamido)-2-methylpropanamido)-1-isopropyl-5a,5b,8,8,11a-pentamethyl-2-oxo-3,3a,4,5,5a,5b,6,7,7a,8,9,10,11,11a,11b,12,13,13a-octadecahydro-2H-cyclopenta[a]chrysen-9-yl)oxy)carbonyl)-2,2-dimethylcyclobutane-1-carboxylic acid]
AUC(0-t) [1]: 377 µg·h/mL
Cmax [1]: 26.8 µg/mL
viability at 4 days, 0.01 µM [2]: 44%
viability at 4 days, 0.1 µM [2]: 8%
viability at 4 days, 1 µM [2]: 2%

CC(C)C1=C2[C@H]3CC[C@@H]4[C@@]5(C)CC[C@H](OC(=O)[C@H]6C[C@@H](C(=O)O)C6(C)C)C(C)(C)[C@@H]5CC[C@@]4(C)[C@]3(C)CC[C@@]2(NC(=O)C2(NC(=O)c3cccnc3N3CCOCC3)CCC2)CC1=O [Example 45, (1R,3S)-3-((((3aR,5aR,5bR,7aR,9S,11aR,11bR,13aS)-1-isopropyl-5a,5b,8,8,11a-pentamethyl-3a-(1-(2-morpholinonicotinamido)cyclobutane-1-carboxamido)-2-oxo-3,3a,4,5,5a,5b,6,7,7a,8,9,10,11,11a,11b,12,13,13a-octadecahydro-2H-cyclopenta[a]chrysen-9-yl)oxy)carbonyl)-2,2-dimethylcyclobutane-1-carboxylic acid]
AUC(0-t) [1]: 214 µg·h/mL
Cmax [1]: 21.2 µg/mL

CC(C)C1=C2[C@H]3CC[C@@H]4[C@@]5(C)CC[C@H](OC(=O)[C@H]6C[C@@H](C(=O)O)C6(C)C)C(C)(C)[C@@H]5CC[C@@]4(C)[C@]3(C)CC[C@@]2(NC(=O)C(C)(C)NC(=O)c2ccc(Cl)cn2)CC1=O [Example 70, (1R,3S)-3-((((3aR,5aR,5bR,7aR,9S,11aR,11bR,13aS)-3a-(2-(5-chloropicolinamido)-2-methylpropanamido)-1-isopropyl-5a,5b,8,8,11a-pentamethyl-2-oxo-3,3a,4,5,5a,5b,6,7,7a,8,9,10,11,11a,11b,12,13,13a-octadecahydro-2H-cyclopenta[a]chrysen-9-yl)oxy)carbonyl)-2,2-dimethylcyclobutane-1-carboxylic acid]
AUC(0-t) [1]: 881 µg·h/mL
Cmax [1]: 36.6 µg/mL
